Results on 23 compounds are retold here after patent publication US9840478B2 (MERCK SHARP & DOHME CORP., priority 2013, dated 2017).

The structures appear in SMILES notation.

This assay relates to HIV-1 (H9IIIB strain). In words: Cell-based HIV infection assay using a reporter (Cell-Based), MT4-GFP cells. Particulars: Human immunodeficiency virus 1, MT4-GFP cells infected with HIV-1 H9IIIB; 50% normal human serum; mean of at least two independent experiments; read-out: Cell-based IP. In outline: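 IC50 from 4-parameter dose-response of % viral growth inhibition, using the 48 h/24 h infected-cell ratio scaled between DMSO and a protease/integrase/NNRTI triple-drug control. Assay used MT4 cells with HIV-LTR-GFP reporter, pre-infected 24 h with HIV-1 H9IIIB, in 50% normal human serum.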
In the case of `CC[C@H]1CNC[C@H](CCc2c(F)cccc2NC(=O)[C@@H](NC(=O)OC)[C@@H](c2ccc(Cl)cc2)C2CCOCC2)N1S(=O)(=O)c1ccccc1` [Example 268, methyl ((1R,2S)-1-(4-chlorophenyl)-3-((2-(2-((2S,6S)-6-ethyl-1-(phenylsulfonyl)piperazin-2-yl)ethyl)-3-fluorophenyl)amino)-3-oxo-1-(tetrahydro-2H-pyran-4-yl)propan-2-yl) carbamate], the IC50 stood at 14 nM.

As to `O=C(C[C@@H](c1ccc(F)cc1)c1cc(F)cc(F)c1)Nc1cncc(F)c1CC[C@H]1CNCCN1S(=O)(=O)c1cccnc1` [Example 305, (3S)-3-(3,5-difluorophenyl)-3-(4-fluorophenyl)-N-(5-fluoro-4-{2-[(2S)-1-(pyridin-3-ylsulfonyl)piperazin-2-yl]ethyl}pyridin-3-yl)propanamide], the IC50 came out at 8.2 nM.

In the case of `CC[C@@H]1CNC[C@H](CCc2c(F)cccc2NC(=O)[C@@H](N)[C@@H](c2ccc(F)cc2)c2cc(F)cc(F)c2)N1S(C)(=O)=O` [Example 263, (βS)-β-(3,5-difluorophenyl)-N-(2-{2-[(2S,6R)-6-ethyl-1-(methylsulfonyl)piperazin-2-yl]ethyl}-3-fluorophenyl)-4-fluoro-L-phenylalaninamide], the IC50 was 77 nM.

Take `C[C@@H]1CNC[C@H](CCc2c(F)cccc2NC(=O)[C@@H](N)C2(c3cc(F)cc(F)c3)CCOCC2)N1S(=O)(=O)c1ccccc1` [Example 287, (2S)-2-amino-2-[4-(3,5-difluorophenyl)tetrahydro-2H-pyran-4-yl]-N-(3-fluoro-2-{2-[(2S,6R)-6-methyl-1-(phenylsulfonyl)piperazin-2-yl]ethyl}phenyl)ethanamide]: the IC50 worked out at 91 nM.

On to `COC(=O)N[C@H](C(=O)Nc1cncc(F)c1CC[C@H]1CNC[C@@H](C)N1S(=O)(=O)c1ccccc1)[C@@H](c1ccc(Cl)cc1)C(C)C` [Example 17, (βR)-4-chloro-N-(5-fluoro-4-{2-[(2S,6R)-6-methyl-1-(phenylsulfonyl)piperazin-2-yl]ethyl}pyridin-3-yl)-Nα-(methoxycarbonyl)-β-(1-methylethyl)-L-phenylalaninamide], for which the IC50 is 4.4 nM.

`O=C(N[C@H](C(=O)Nc1cncc(F)c1CC[C@H]1CNCCN1S(=O)(=O)N1CCCC1)[C@@H](c1ccc(F)cc1)c1cc(F)cc(F)c1)C1CC1` [Example 86]: the IC50 was determined as 13 nM.

For `O=C(CC(c1ccc(F)cc1)c1ccc(F)cc1)Nc1cccc(F)c1CC[C@@H]1CNCCN1S(=O)(=O)c1ccccc1` [Example 61, 3,3-bis(4-fluorophenyl)-N-(3-fluoro-2-{2-[(2R)-1-(phenylsulfonyl)piperazin-2-yl]ethyl}phenyl)propanamide], the IC50 amounted to 1200 nM.

As to `O=C(C[C@@H](c1ccc(Cl)cc1)C1CCS(=O)(=O)CC1)Nc1cccc(F)c1CC[C@H]1CNCCN1S(=O)(=O)c1ccccc1` [Example 36, (3R)-3-(4-chlorophenyl)-3-(1,1-dioxidotetrahydro-2H-thiopyran-4-yl)-N-(3-fluoro-2-{2-[(2S)-1-(phenylsulfonyl)piperazin-2-yl]ethyl}phenyl) propanamide], the IC50 worked out at 29 nM.

Regarding `C[C@H]1CNC[C@H](CCc2c(F)cncc2NC(=O)[C@@H](N)[C@@H](c2ccc(Cl)cc2)C2CCOCC2)N1S(=O)(=O)c1ccc(Cl)cc1` [Example 273, (βR)-4-chloro-N-[4-(2-{(2S,6S)-1-[(4-chlorophenyl)sulfonyl]-6-methylpiperazin-2-yl}ethyl)-5-fluoropyridin-3-yl]-β-(tetrahydro-2H-pyran-4-yl)-L-phenylalaninamide], the IC50 worked out at 11 nM.

For `COC(=O)N[C@H](C(=O)Nc1cccc(F)c1CC[C@H]1CNC[C@@H](C)N1S(=O)(=O)C1CC1)[C@@H](c1ccc(F)cc1)c1cc(F)cc(F)c1` [Example 257, (βS)-N-(2-{2-[(2S,6R)-1-(cyclopropylsulfonyl)-6-methylpiperazin-2-yl]ethyl}-3-fluorophenyl)-β-(3,5-difluorophenyl)-4-fluoro-Nα-(methoxycarbonyl)-L-phenylalaninamide], the IC50 turned out to be 27 nM.

Consider `C[C@H]1CNC[C@H](CCc2c(F)cccc2NC(=O)[C@@H](N)[C@@H](c2ccc(Cl)cc2)c2cncc(F)c2)N1S(=O)(=O)c1ccccc1` [Example 236, (βS)-4-chloro-N-(3-fluoro-2-{2-[(2S,6S)-6-methyl-1-(phenylsulfonyl)piperazin-2-yl]ethyl}phenyl)-β-(5-fluoropyridin-3-yl)-L-phenylalaninamide], for which the IC50 came to 8.2 nM.

With `CC(=O)N[C@H](C(=O)Nc1cncc(F)c1CC[C@H]1CNCCN1S(=O)(=O)C1CC1)[C@@H](c1ccc(F)cc1)c1cc(F)cc(F)c1` [Example 80, (βS)-Nα-acetyl-N-(4-{2-[(2S)-1-(cyclopropylsulfonyl)piperazin-2-yl]ethyl}-5-fluoropyridin-3-yl)-3,5-difluoro-β-(4-fluorophenyl)-L-phenylalaninamide], the IC50 amounted to 66 nM.

With `COC(=O)N[C@H](C(=O)Nc1cccc(F)c1CC[C@H]1CNCCN1S(=O)(=O)c1ccccc1)[C@@H](c1ccc(Cl)cc1)C1CC(C)(C)OC(C)(C)C1` [Example 77, (βR)-4-chloro-N-(3-fluoro-2-{2-[(2S)-1-(phenylsulfonyl)piperazin-2-yl]ethyl}phenyl)-Nα-(methoxycarbonyl)-β-(2,2,6,6-tetramethyltetrahydro-2H-pyran-4-yl)-L-phenylalaninamide], the IC50 amounted to 18 nM.

As for `COC(=O)N[C@H](C(=O)Nc1cncc(F)c1CC[C@H]1CNCCN1S(=O)(=O)c1ccccc1)[C@@H](c1ccc(Cl)cc1)c1cccc(OC(F)(F)F)c1` [Example 56, (βS)-4-chloro-N-(5-fluoro-4-{2-[(2S)-1-(phenylsulfonyl)piperazin-2-yl]ethyl}pyridin-3-yl)-Nα-(methoxycarbonyl)-β-[3-(trifluoromethoxy)phenyl]-L-phenylalaninamide], the IC50 came out at 13 nM.

For `O=C(C[C@@H](c1ccc(F)cc1)c1cc(F)cc(F)c1)Nc1cncc(F)c1CC[C@H]1CNCCN1S(=O)(=O)N1CCc2ccccc2C1` [Example 322, (3S)-3-(3,5-difluorophenyl)-N-(4-{2-[(2S)-1-(3,4-dihydroisoquinolin-2(1H)-ylsulfonyl)piperazin-2-yl]ethyl}-5-fluoropyridin-3-yl)-3-(4-fluorophenyl)propanamide], the IC50 was found to be 530 nM.

With `COc1ccc(S(=O)(=O)N2[C@@H](CCc3c(F)cccc3NC(=O)[C@@H](N)[C@@H](Cc3ccc(F)cc3)c3ccc(Cl)cc3)CNC[C@@H]2C)cc1` [Example 186, (βS)-4-chloro-β-(4-fluorobenzyl)-N-[3-fluoro-2-(2-{(2S,6S)-1-[(4-methoxyphenyl)sulfonyl]-6-methylpiperazin-2-yl}ethyl)phenyl]-L-phenylalaninamide], the IC50 stood at 86 nM.

For the compound `COC(=O)N[C@H](C(=O)Nc1cccc(F)c1CC[C@H]1CNC[C@H](C)N1S(=O)(=O)c1cccc(F)c1)[C@@H](c1ccc(F)cc1)c1cc(F)cc(F)c1` [Example 107, (βS)-β-(3,5-difluorophenyl)-4-fluoro-N-[3-fluoro-2-(2-{(2S,6S)-1-[(3-fluorophenyl)sulfonyl]-6-methylpiperazin-2-yl}ethyl)phenyl]-Nα-(methoxycarbonyl)-L-phenylalaninamide], the IC50 turned out to be 150 nM.

Regarding `COC(=O)N[C@H](C(=O)Nc1cccc(F)c1CC[C@H]1CNC[C@@H](C)N1S(=O)(=O)c1ccccc1)C1(c2ccc(F)c(F)c2)CCOCC1` [Example 290, methyl {(1S)-1-[4-(3,4-difluorophenyl)tetrahydro-2H-pyran-4-yl]-2-[(3-fluoro-2-{2-[(2S,6R)-6-methyl-1-(phenylsulfonyl)piperazin-2-yl]ethyl}phenyl)amino]-2-oxoethyl}carbamate], the IC50 was 15 nM.

Take `COC(=O)N[C@H](C(=O)Nc1cccc(F)c1CC[C@H]1CNC[C@H](C)N1S(=O)(=O)c1ccccc1)[C@@H](c1ccc(Cl)cc1)C(C)C` [Example 111, (βR)-4-chloro-N-(3-fluoro-2-{2-[(2S,6S)-6-methyl-1-(phenylsulfonyl)piperazin-2-yl]ethyl}phenyl)-Nα-(methoxycarbonyl)-β-(1-methylethyl)-L-phenylalaninamide]: the IC50 stood at 34 nM.

Take `N[C@H](C(=O)Nc1cncc(F)c1CC[C@H]1CNCCN1S(=O)(=O)c1ccccc1)[C@@H](c1ccc(Cl)cc1)c1cccc(OC(F)(F)F)c1` [Example 45, (βS)-4-chloro-N-(5-fluoro-4-{2-[(2S)-1-(phenylsulfonyl)piperazin-2-yl]ethyl}pyridin-3-yl)-β-[3-(trifluoromethoxy)phenyl]-L-phenylalaninamide]: the IC50 worked out at 16 nM.

For `COC(=O)N[C@H](C(=O)Nc1cccc(F)c1CC[C@H]1CNCC2(CC2)CN1S(=O)(=O)c1ccccc1)[C@@H](c1ccc(F)cc1)C1CCOCC1` [Example 20, Methyl ((2S,3R)-1-((3-fluoro-2-(2-((S)-5-(phenylsulfonyl)-5,8-diazaspiro[2.6]nonan-6-yl)ethyl)phenyl)amino)-3-(4-fluorophenyl)-1-oxo-3-(tetrahydro-2H-pyran-4-yl)propan-2-yl)carbamate], the IC50 came to 21 nM.

As for `C[C@H]1CNC[C@H](CCc2c(F)cccc2NC(=O)[C@@H](N)[C@@H](Cc2ccc(F)cc2)c2ccc(Cl)cc2)N1S(C)(=O)=O` [Example 202, (βS)-4-chloro-β-(4-fluorobenzyl)-N-(3-fluoro-2-{2-[(2S,6S)-6-methyl-1-(methylsulfonyl)piperazin-2-yl]ethyl}phenyl)-L-phenylalaninamide], the IC50 turned out to be 620 nM.

`COc1ccc(S(=O)(=O)N2[C@@H](CCc3c(F)cccc3NC(=O)[C@@H](N)[C@@H](c3ccc(Cl)cc3)C(C)C)CNC[C@@H]2C)cc1` [Example 124, (βR)-4-chloro-N-[3-fluoro-2-(2-{(2S,6S)-1-[(4-methoxyphenyl)sulfonyl]-6-methylpiperazin-2-yl}ethyl)phenyl]-β-(1-methylethyl)-L-phenylalaninamide]: the IC50 amounted to 63 nM.
